Inconclusive results and toxic doses are left out.

The test system of this assay is L1210 leukemia ip in BDF1 mice, survival T/C. Nature of the assay: NCI In Vivo Anticancer Drug Screen. Data for tumor model L1210 Leukemia (intraperitoneal) in B6D2F1 (BDF1) mice. Particulars: higher = longer survival. The procedure, abridged: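 Tumor was transplanted into mice, which were then dosed with test compound or vehicle alone. Survival was recorded for each group, and the treated figure was expressed relative to the control figure.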

Setting [1] is: endpoint: mean survival time, dose: 100.0 mg/kg/injection, schedule: Q01DX009 (ip), vehicle: saline.
[2] abbreviates: endpoint: mean survival time, dose: 100.0 mg/kg/injection, schedule: Q04DX003 (ip), vehicle: saline.
The mark [3] stands for this setting: endpoint: mean survival time, dose: 200.0 mg/kg/injection, schedule: Q01DX009 (ip), vehicle: saline.
Setting [4] is: endpoint: mean survival time, dose: 200.0 mg/kg/injection, schedule: Q04DX003 (ip), vehicle: saline.
The mark [5] stands for this setting: endpoint: mean survival time, dose: 400.0 mg/kg/injection, schedule: Q01DX009 (ip), vehicle: saline.
The mark [6] stands for this setting: endpoint: mean survival time, dose: 400.0 mg/kg/injection, schedule: Q04DX003 (ip), vehicle: saline.
The mark [7] stands for this setting: endpoint: mean survival time, dose: 100.0 mg/kg/injection, schedule: Q01DX009 (ip), vehicle: saline with Tween-80.
[8] abbreviates: endpoint: mean survival time, dose: 100.0 mg/kg/injection, schedule: Q04DX003 (ip), vehicle: saline with Tween-80.
[9] abbreviates: endpoint: mean survival time, dose: 200.0 mg/kg/injection, schedule: Q04DX003 (ip), vehicle: saline with Tween-80.
Setting [10] is: endpoint: mean survival time, dose: 400.0 mg/kg/injection, schedule: Q04DX003 (ip), vehicle: saline with Tween-80.
Setting [11] is: endpoint: mean survival time, dose: 100.0 mg/kg/injection, schedule: Q04DX003 (ip), vehicle: Klucel (hydroxypropylcellulose) (HPC).
Setting [12] is: endpoint: mean survival time, dose: 100.0 mg/kg/injection, schedule: Q01DX001 (ip), vehicle: saline.
Setting [13] is: endpoint: mean survival time, dose: 200.0 mg/kg/injection, schedule: Q01DX001 (ip), vehicle: saline.
[14] abbreviates: endpoint: mean survival time, dose: 400.0 mg/kg/injection, schedule: Q01DX001 (ip), vehicle: saline.

For `O=C(Cn1cc(F)c(=O)[nH]c1=O)c1ccco1`, the T/C is 90 % of control under setting [1]; 96 % of control under setting [2]; 91 % of control under setting [3]; 93 % of control under setting [4]; 88 % of control under setting [5]; 88 % of control under setting [6].
Take `Nc1ccc(OCCCCNC(=O)c2ccc(S(=O)(=O)F)cc2)c(Cl)c1`: the T/C was 98 % of control under setting [7]; 97 % of control under setting [8]; 102 % of control (endpoint: mean survival time, dose: 200.0 mg/kg/injection, schedule: Q01DX009 (ip), vehicle: saline with Tween-80); 97 % of control under setting [9]; 97 % of control under setting [10].
As for `COP(=O)(OC)OC1C(=O)NC(=O)NC1=O`, the T/C (endpoint: mean survival time, dose: 50.0 mg/kg/injection, schedule: Q01DX001 (ip), vehicle: carboxymethylcellulose (CMC)) is 98 % of control; the T/C (endpoint: mean survival time, dose: 100.0 mg/kg/injection, schedule: Q01DX001 (ip), vehicle: carboxymethylcellulose (CMC)) is 93 % of control; the T/C (endpoint: mean survival time, dose: 200.0 mg/kg/injection, schedule: Q01DX001 (ip), vehicle: carboxymethylcellulose (CMC)) is 96 % of control; the T/C (endpoint: mean survival time, dose: 400.0 mg/kg/injection, schedule: Q01DX001 (ip), vehicle: carboxymethylcellulose (CMC)) is 96 % of control.
With `c1ccc(-c2cnoc2-c2ccccc2)cc1`, the T/C reads like this: (endpoint: mean survival time, dose: 100.0 mg/kg/injection, schedule: Q01DX009 (ip), vehicle: Klucel (hydroxypropylcellulose) (HPC)) 107 % of control; under setting [11], 111 % of control; (endpoint: mean survival time, dose: 200.0 mg/kg/injection, schedule: Q01DX009 (ip), vehicle: Klucel (hydroxypropylcellulose) (HPC)) 106 % of control; (endpoint: mean survival time, dose: 200.0 mg/kg/injection, schedule: Q04DX003 (ip), vehicle: Klucel (hydroxypropylcellulose) (HPC)) 95 % of control; (endpoint: mean survival time, dose: 400.0 mg/kg/injection, schedule: Q01DX009 (ip), vehicle: Klucel (hydroxypropylcellulose) (HPC)) 102 % of control; (endpoint: mean survival time, dose: 400.0 mg/kg/injection, schedule: Q04DX003 (ip), vehicle: Klucel (hydroxypropylcellulose) (HPC)) 101 % of control.
As for `COC(=O)c1cc(N2CC2)nc(Cl)n1`, the T/C is, setting by setting: (endpoint: mean survival time, dose: 25.0 mg/kg/injection, schedule: Q01DX Z (ip), vehicle: methylcellulose (MC)) 101 % of control; (endpoint: mean survival time, dose: 50.0 mg/kg/injection, schedule: Q01DX Z (ip), vehicle: methylcellulose (MC)) 93 % of control.
`CC(C)(C)C(=O)CC(=O)C(C)(C)C.CC(C)(C)C(=O)CC(=O)C(C)(C)C.CC(C)(C)C(=O)CC(=O)C(C)(C)C.[Tb]`: the T/C reads like this: under setting [8], 93 % of control; under setting [9], 93 % of control; under setting [10], 94 % of control.
Take `COC1C(O)C(C)OC(OC2C(Oc3cccc4c(O)c5c(=O)oc6ccc(C)c7c(=O)oc(c34)c5c67)OC(C)C(O)C2O)C1O` (stereo not drawn): the T/C is 97 % of control (endpoint: mean survival time, dose: 1.25 mg/kg/injection, schedule: Q01DX009 (ip), vehicle: saline with Tween-80); 123 % of control (endpoint: mean survival time, dose: 2.5 mg/kg/injection, schedule: Q01DX009 (ip), vehicle: saline with Tween-80); 115 % of control (endpoint: mean survival time, dose: 5.0 mg/kg/injection, schedule: Q01DX009 (ip), vehicle: saline with Tween-80); 108 % of control (endpoint: mean survival time, dose: 12.5 mg/kg/injection, schedule: Q01DX009 (ip), vehicle: carboxymethylcellulose (CMC)); 166 % of control (endpoint: mean survival time, dose: 20.0 mg/kg/injection, schedule: Q01DX009 (ip), vehicle: saline with Tween-80); 108 % of control (endpoint: mean survival time, dose: 25.0 mg/kg/injection, schedule: Q01DX009 (ip), vehicle: carboxymethylcellulose (CMC)). For the same compound, the T/C runs as follows: (endpoint: mean survival time, dose: 50.0 mg/kg/injection, schedule: Q01DX009 (ip), vehicle: carboxymethylcellulose (CMC)) 117 % of control; under setting [7], 121 % of control; (endpoint: median survival time, dose: 8.0 mg/kg/injection, schedule: Q04DX003 (ip), vehicle: saline with Tween-80) 106 % of control; (endpoint: median survival time, dose: 16.0 mg/kg/injection, schedule: Q04DX003 (ip), vehicle: saline with Tween-80) 110 % of control; (endpoint: median survival time, dose: 32.0 mg/kg/injection, schedule: Q04DX003 (ip), vehicle: saline with Tween-80) 114 % of control; (endpoint: median survival time, dose: 64.0 mg/kg/injection, schedule: Q04DX003 (ip), vehicle: saline with Tween-80) 114 % of control. The T/C (endpoint: median survival time, dose: 128.0 mg/kg/injection, schedule: Q04DX003 (ip), vehicle: saline with Tween-80) was 110 % of control.
With `CC(=O)OC1C(C)C2C=CC(=O)C2(C)CC2C1OC(=O)C2(O)CO` (stereo not drawn), the T/C was 116 % of control (endpoint: mean survival time, dose: 25.0 mg/kg/injection, schedule: Q04DX002 (ip), vehicle: saline); 113 % of control (endpoint: mean survival time, dose: 50.0 mg/kg/injection, schedule: Q04DX002 (ip), vehicle: saline); 95 % of control (endpoint: mean survival time, dose: 100.0 mg/kg/injection, schedule: Q04DX002 (ip), vehicle: saline).
Take `[CH3][Sb]1([CH3])([I])[CH2]CC[CH2]1`: the T/C runs as follows: under setting [2], 101 % of control; under setting [4], 97 % of control; under setting [6], 101 % of control.
Regarding `CCCCCCCCCCCCCCCC[N+](C)(C)c1nc(Cl)nc(Cl)n1`, the T/C (endpoint: mean survival time, dose: 3.75 mg/kg/injection, schedule: Q01DX009 (ip), vehicle: saline) is 102 % of control; the T/C (endpoint: mean survival time, dose: 7.5 mg/kg/injection, schedule: Q01DX009 (ip), vehicle: saline) is 97 % of control; the T/C (endpoint: mean survival time, dose: 15.0 mg/kg/injection, schedule: Q01DX009 (ip), vehicle: saline) was 96 % of control; the T/C (endpoint: mean survival time, dose: 30.0 mg/kg/injection, schedule: Q01DX009 (ip), vehicle: saline) is 96 % of control; the T/C (endpoint: mean survival time, dose: 37.5 mg/kg/injection, schedule: Q04DX003 (ip), vehicle: saline) was 102 % of control; the T/C (endpoint: mean survival time, dose: 50.0 mg/kg/injection, schedule: Q01DX001 (ip), vehicle: water) is 105 % of control. In addition, the T/C (endpoint: mean survival time, dose: 75.0 mg/kg/injection, schedule: Q04DX003 (ip), vehicle: saline) is 102 % of control and the T/C (endpoint: mean survival time, dose: 100.0 mg/kg/injection, schedule: Q01DX001 (ip), vehicle: water) is 100 % of control.
As for `CC1(C)CC(=O)C2=C(C1)Nc1ccccc1CC2c1c[nH]c2ccccc12` (stereo not drawn), the T/C reads like this: (endpoint: mean survival time, dose: 100.0 mg/kg/injection, schedule: Q01DX001 (ip), vehicle: other) 94 % of control; (endpoint: mean survival time, dose: 200.0 mg/kg/injection, schedule: Q01DX001 (ip), vehicle: other) 103 % of control; (endpoint: mean survival time, dose: 400.0 mg/kg/injection, schedule: Q01DX001 (ip), vehicle: other) 103 % of control.
For `Cc1ccc(NC(=S)NNC(=S)NNc2ccccc2)cc1`, the T/C is, setting by setting: (endpoint: mean survival time, dose: 100.0 mg/kg/injection, schedule: Q04DX002 (ip), vehicle: Klucel (hydroxypropylcellulose) (HPC)) 86 % of control; (endpoint: mean survival time, dose: 200.0 mg/kg/injection, schedule: Q04DX002 (ip), vehicle: Klucel (hydroxypropylcellulose) (HPC)) 94 % of control.
In the case of `CCCCS(=O)(=O)CCCCCCl`, the T/C is 105 % of control under setting [12], 104 % of control under setting [13] and 104 % of control under setting [14].
On to `CC(=O)Nc1ccc(Cl)cc1C(=O)c1ccc[nH]1`, for which the T/C (endpoint: mean survival time, dose: 50.0 mg/kg/injection, schedule: Q01DX009 (ip), vehicle: saline) is 110 % of control; the T/C under setting [1] was 104 % of control; the T/C under setting [2] was 106 % of control; the T/C under setting [3] is 103 % of control; the T/C under setting [4] was 108 % of control; the T/C under setting [5] is 98 % of control. Further, the T/C under setting [6] was 93 % of control.
Consider `CC(=O)OC1CCCCC1C` (stereo not drawn), for which the T/C under setting [12] was 102 % of control, the T/C under setting [13] was 94 % of control and the T/C under setting [14] is 91 % of control.
For the compound `COc1ccc(/C=C/[N+](=O)[O-])cc1`, the T/C is, setting by setting: (endpoint: mean survival time, dose: 6.25 mg/kg/injection, schedule: Q04DX002 (ip), vehicle: saline with Tween-80) 97 % of control; (endpoint: mean survival time, dose: 12.5 mg/kg/injection, schedule: Q04DX002 (ip), vehicle: saline with Tween-80) 93 % of control; (endpoint: mean survival time, dose: 25.0 mg/kg/injection, schedule: Q04DX002 (ip), vehicle: other) 96 % of control; (endpoint: mean survival time, dose: 25.0 mg/kg/injection, schedule: Q04DX002 (ip), vehicle: saline with Tween-80) 89 % of control; (endpoint: mean survival time, dose: 25.0 mg/kg/injection, schedule: Q04DX003 (ip), vehicle: Klucel (hydroxypropylcellulose) (HPC)) 100 % of control; (endpoint: mean survival time, dose: 50.0 mg/kg/injection, schedule: Q04DX003 (ip), vehicle: Klucel (hydroxypropylcellulose) (HPC)) 103 % of control. Under setting [11], the T/C was 95 % of control.

Source of the values: PubChem BioAssay AID248 (DTP/NCI, 2004).
